Reference: patent publication US8937058B2, “17-hydroxy-19-nor-21-carboxylic acid-steroid γ-lactone derivative, use thereof, and medicament containing the derivative” (priority 2007, dated 2015)
Like-named read-outs stand apart in the source and are kept apart here.

Assays:
progesterone receptor = progesterone receptor (Homo sapiens (Human), UniProt P06401)
Description: Progesterone Receptor Binding Test:
Using cytosol from progesterone receptor-expressing insect cells (Hi5), competitive binding to the progesterone receptor was determined from the ability to displace ^3H-progesterone as reference substance from the receptor.

[1] = molecular target: T1, mineralocorticoid receptor (Homo sapiens (Human), UniProt P08235); experiment: Antimineralocorticoid action by transactivation test (MDCK luciferase reporter cells); assay type: cell-based; details: in-vitro transactivation, 1 nM aldosterone
T1 sequence (P08235 whole entry): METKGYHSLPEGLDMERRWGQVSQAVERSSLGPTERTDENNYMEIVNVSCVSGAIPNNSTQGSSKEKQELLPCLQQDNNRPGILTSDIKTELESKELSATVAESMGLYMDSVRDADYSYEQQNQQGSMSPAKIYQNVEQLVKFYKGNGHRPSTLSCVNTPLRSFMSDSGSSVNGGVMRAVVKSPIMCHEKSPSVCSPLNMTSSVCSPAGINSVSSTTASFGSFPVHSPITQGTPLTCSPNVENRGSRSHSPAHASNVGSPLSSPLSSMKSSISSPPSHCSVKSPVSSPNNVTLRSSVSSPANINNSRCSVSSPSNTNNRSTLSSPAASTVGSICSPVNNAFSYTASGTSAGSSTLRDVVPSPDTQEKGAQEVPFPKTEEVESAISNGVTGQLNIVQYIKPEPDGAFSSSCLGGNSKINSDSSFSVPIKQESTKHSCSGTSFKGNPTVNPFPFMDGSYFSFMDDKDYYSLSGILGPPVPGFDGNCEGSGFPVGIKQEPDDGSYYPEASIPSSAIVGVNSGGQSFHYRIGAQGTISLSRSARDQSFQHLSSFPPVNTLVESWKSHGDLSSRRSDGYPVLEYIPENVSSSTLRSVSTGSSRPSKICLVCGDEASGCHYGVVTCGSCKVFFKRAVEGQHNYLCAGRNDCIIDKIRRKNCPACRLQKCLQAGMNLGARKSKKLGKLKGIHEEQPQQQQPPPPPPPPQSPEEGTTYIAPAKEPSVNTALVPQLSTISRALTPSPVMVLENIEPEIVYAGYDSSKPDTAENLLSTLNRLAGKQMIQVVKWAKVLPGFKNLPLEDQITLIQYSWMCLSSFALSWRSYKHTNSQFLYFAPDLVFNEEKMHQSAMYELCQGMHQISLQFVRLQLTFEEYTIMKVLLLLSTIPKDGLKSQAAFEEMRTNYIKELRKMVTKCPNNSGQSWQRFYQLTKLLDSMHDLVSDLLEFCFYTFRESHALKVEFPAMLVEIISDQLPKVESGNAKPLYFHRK
Description: 5. Determination of Antimineralocorticoid Action by Means of Transactivation Tests:
The antimineralocorticoid activity of the test substances was determined as for the transactivation tests described above.
The following modifications were undertaken: In this case reporter cell lines were used (MDCK cells) that express the human mineralocorticoid receptor, and transiently contain a reporter construct that contains luciferase under the control of a steroid hormone-responsive promoter.
For determination of antimineralocorticoid efficacy, 1 nM aldosterone (SIGMA A-6628, Lot 22H4033) was added to the cells, to achieve almost maximum stimulation of the reporter gene. Inhibition of the effect indicated a mineralocorticoid-antagonistic action of the substances (Table 2; for comparison, corresponding values for drospirenone (A)).

[2] = molecular target: fusion protein from the PR-ligand-binding domain and a Gal4-transactivation domain (Homo sapiens (Human), UniProt P06401); experiment: cell-based; details: in-vitro transactivation, CHO K1 reporter cells, 16 hours
fusion protein from the PR-ligand-binding domain and a Gal4-transactivation domain, sequence (P06401 679-913): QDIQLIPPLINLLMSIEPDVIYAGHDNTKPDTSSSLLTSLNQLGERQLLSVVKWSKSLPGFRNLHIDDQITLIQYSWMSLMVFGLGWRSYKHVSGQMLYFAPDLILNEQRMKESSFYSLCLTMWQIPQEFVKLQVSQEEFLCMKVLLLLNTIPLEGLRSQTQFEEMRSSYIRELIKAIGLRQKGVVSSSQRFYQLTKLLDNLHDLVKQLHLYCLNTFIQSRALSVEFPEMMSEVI
Description: 4. Determination of Progestational Action by Means of Transactivation Tests:
The test compounds were added eight hours later, and the cells were incubated with the compounds for 16 hours. The tests were carried out in triplicate. At the end of incubation the medium containing the effector was removed and replaced with lysis buffer. After luciferase assay substrate (Promega, #E1501) had been added, the 96-well plates were then put in a microplate luminometer (Pherastar, BMG Labtech), and the luminescence was measured. The IC50 values were evaluated using software for calculating dose-effect relations.

androgen receptor [3] = molecular target: T2, androgen receptor (Homo sapiens (Human), UniProt P10275)
T2 sequence (P10275 whole entry, species assumed): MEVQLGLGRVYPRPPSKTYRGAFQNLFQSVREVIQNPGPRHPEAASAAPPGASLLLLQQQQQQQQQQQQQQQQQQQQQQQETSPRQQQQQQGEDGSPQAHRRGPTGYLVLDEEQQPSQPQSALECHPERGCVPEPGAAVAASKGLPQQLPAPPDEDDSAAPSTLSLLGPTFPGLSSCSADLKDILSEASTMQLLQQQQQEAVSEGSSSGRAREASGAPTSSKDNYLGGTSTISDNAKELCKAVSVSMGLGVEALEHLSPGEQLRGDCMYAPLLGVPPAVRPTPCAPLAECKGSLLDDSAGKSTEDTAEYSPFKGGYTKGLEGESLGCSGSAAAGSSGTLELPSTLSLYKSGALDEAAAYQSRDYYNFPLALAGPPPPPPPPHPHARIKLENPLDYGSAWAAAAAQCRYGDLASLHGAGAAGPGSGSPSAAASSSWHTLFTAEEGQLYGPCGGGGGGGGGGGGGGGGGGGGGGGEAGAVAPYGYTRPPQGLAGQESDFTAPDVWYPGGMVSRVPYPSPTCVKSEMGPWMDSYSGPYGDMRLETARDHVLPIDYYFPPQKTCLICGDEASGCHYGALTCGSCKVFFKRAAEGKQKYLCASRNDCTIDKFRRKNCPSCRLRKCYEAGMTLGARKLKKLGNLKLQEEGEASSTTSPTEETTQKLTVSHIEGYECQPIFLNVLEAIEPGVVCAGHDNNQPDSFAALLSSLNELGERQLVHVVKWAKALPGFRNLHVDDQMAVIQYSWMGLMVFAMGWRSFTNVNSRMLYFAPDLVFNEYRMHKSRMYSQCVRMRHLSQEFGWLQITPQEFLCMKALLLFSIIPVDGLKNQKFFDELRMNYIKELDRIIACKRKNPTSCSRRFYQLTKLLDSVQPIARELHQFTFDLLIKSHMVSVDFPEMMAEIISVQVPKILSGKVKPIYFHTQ
Description: 3. Androgen Receptor Binding Test:
The test was carried out as in 1., with the following modifications: cytosol from androgen receptor-expressing insect cells (Hi5) was used, and the reference substance was ^3H-testosterone.

[4] = molecular target: T1, mineralocorticoid receptor; experiment: Mineralocorticoid receptor binding test (displacement of 3H-aldosterone, cytosol from Hi5 insect cells); details: reference substance 3H-aldosterone
Description: 2. Mineralocorticoid Receptor Binding Test:
The test was carried out as in 1., with the following modifications: cytosol from mineralocorticoid receptor-expressing insect cells (Hi5) was used, and the reference substance was ^3H-aldosterone.

androgen receptor [5] = molecular target: T2, androgen receptor; experiment: cell-based
Description: 6. Determination of Androgenic/Antiandrogenic Action by Means of Transactivation Tests:
The androgenic/antiandrogenic action of the test substances was determined as for the transactivation tests described above.
The following modifications were made: In this case reporter cell lines were used (PC3 cells) that express the androgen receptor, and a reporter construct that contains luciferase under the control of a steroid hormone-responsive promoter.
For determination of the antiandrogenic efficacy, 0.05 nM R1881 was added to the cells, in order to achieve almost maximum stimulation of the reporter gene.

progesterone receptor, sequence (P06401 whole entry, species assumed): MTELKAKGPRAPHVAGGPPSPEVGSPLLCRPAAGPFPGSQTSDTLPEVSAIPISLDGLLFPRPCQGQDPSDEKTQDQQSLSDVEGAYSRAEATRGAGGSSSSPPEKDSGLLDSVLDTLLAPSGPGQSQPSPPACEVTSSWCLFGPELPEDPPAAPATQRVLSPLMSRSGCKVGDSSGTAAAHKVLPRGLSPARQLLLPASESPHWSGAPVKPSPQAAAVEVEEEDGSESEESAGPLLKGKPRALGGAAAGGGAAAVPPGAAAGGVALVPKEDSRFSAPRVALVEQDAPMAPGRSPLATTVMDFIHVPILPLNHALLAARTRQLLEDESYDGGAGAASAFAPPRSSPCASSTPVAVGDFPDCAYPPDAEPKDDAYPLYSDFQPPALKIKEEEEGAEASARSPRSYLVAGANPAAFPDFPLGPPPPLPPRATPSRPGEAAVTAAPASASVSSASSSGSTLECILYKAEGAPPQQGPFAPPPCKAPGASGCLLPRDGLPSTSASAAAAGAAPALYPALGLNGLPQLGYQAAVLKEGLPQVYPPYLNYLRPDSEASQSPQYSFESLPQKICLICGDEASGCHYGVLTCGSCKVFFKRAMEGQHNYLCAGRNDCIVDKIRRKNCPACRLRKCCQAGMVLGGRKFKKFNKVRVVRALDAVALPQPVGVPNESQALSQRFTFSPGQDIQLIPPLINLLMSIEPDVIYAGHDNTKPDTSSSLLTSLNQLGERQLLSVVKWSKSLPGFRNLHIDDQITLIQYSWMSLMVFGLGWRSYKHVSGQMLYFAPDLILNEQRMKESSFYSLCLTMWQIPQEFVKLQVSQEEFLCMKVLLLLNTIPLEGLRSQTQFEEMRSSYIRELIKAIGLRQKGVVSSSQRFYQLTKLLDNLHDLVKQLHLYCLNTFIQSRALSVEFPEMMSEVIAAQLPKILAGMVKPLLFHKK

CC[C@]12CC[C@H]3[C@@H](C=CC4=CC(=O)CC[C@@H]43)[C@@H]1CC[C@@]21C=CC(=O)O1 (stereo in doubt) [Example 7, 17β-Hydroxy-18-methyl-19-nor-17α-pregna-4,6,20(Z)-trien-3-one-21-carboxylic acid γ-lactone]
Progesterone receptor (PR) Competition factor (progesterone receptor; CF of 1 = affinity of progesterone, CF >1 lower affinity): 6.15 | CF PR/CF MR (progesterone receptor; ratio of the competition factors CF(PR) and CF(MR)): 1.58 | IC50 (progesterone receptor; read-out: Progesterone receptor (PR) IC50, receptor binding, 3H-progesterone displacement): 110 nM | Mineralocorticoid receptor Antagonism efficacy [1]: 94.2% | IC50 ([1]; read-out: Mineralocorticoid receptor Antagonism IC50): 100 nM | Progesterone receptor Agonism EC50 [2]: inactive | IC50 (androgen receptor [3]; read-out: Androgen receptor IC50, receptor binding, 3H-testosterone displacement): 2600 nM | Androgen receptor Competition factor (androgen receptor [3]; reference substance 3H-testosterone): 112.0 | Mineralocorticoid receptor (MR) Competition factor [4]: 3.9 | EC50 (androgen receptor [5]): 1000 nM | IC50 (androgen receptor [5]): 100 nM | Androgen receptor Agonism efficacy (androgen receptor [5]; in-vitro transactivation, PC3 cells): 5% | Androgen receptor Antagonism efficacy (androgen receptor [5]; in-vitro transactivation, PC3 cells, 0.05 nM R1881): 59.23%
